{
  "source": "PubChem BioAssay AID328",
  "about": "(DTP/NCI, 2004)",
  "test_system": "BDF1 mice, P388 leukemia ip, median survival T/C",
  "experiment": "NCI In Vivo Anticancer Drug Screen. Data for tumor model P388 Leukemia (intraperitoneal) in B6D2F1 (BDF1) mice",
  "conditions": "endpoint: median survival time, higher = longer survival",
  "procedure,_shortened": "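Read-out is survival of treated animals expressed relative to the vehicle group, as a T/C ratio.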",
  "key": {"[1]": {"conditions": "dose: 100.0 mg/kg/injection, schedule: Q04DX003 (ip), vehicle: saline with Tween-80"}, "[2]": {"conditions": "dose: 200.0 mg/kg/injection, schedule: Q04DX003 (ip), vehicle: saline with Tween-80"}, "[3]": {"conditions": "dose: 400.0 mg/kg/injection, schedule: Q04DX003 (ip), vehicle: saline with Tween-80"}, "[4]": {"conditions": "dose: 100.0 mg/kg/injection, schedule: Q01DX009 (ip), vehicle: saline with Tween-80"}, "[5]": {"conditions": "dose: 200.0 mg/kg/injection, schedule: Q01DX009 (ip), vehicle: saline with Tween-80"}, "[6]": {"conditions": "dose: 50.0 mg/kg/injection, schedule: Q01DX009 (ip), vehicle: saline with Tween-80"}, "[7]": {"conditions": "dose: 100.0 mg/kg/injection, schedule: Q01DX009 (ip), vehicle: Klucel (hydroxypropylcellulose) (HPC)"}, "[8]": {"conditions": "dose: 100.0 mg/kg/injection, schedule: Q04DX003 (ip), vehicle: Klucel (hydroxypropylcellulose) (HPC)"}, "[9]": {"conditions": "dose: 50.0 mg/kg/injection, schedule: Q01DX009 (ip), vehicle: saline"}, "[10]": {"conditions": "dose: 100.0 mg/kg/injection, schedule: Q01DX009 (ip), vehicle: saline"}},
  "note": "“And” between values parts separate entries of the source, which are not always exact repeats. Equal entries are not always repeated. Inconclusive results and toxic doses are left out.",
  "data": [
    {"smiles": "COC(OC)c1[nH]c(=S)[nH]c(=O)c1C", "values": [
      {"measurement": "T/C", "setting": "dose: 100.0 mg/kg/injection, schedule: Q04DX003 (sc), vehicle: olive oil, sesame oil, peanut oil", "result": "90 % of control"},
      {"measurement": "T/C", "setting": "dose: 200.0 mg/kg/injection, schedule: Q04DX003 (sc), vehicle: olive oil, sesame oil, peanut oil", "result": "95 % of control"},
      {"measurement": "T/C", "setting": "dose: 400.0 mg/kg/injection, schedule: Q04DX003 (sc), vehicle: olive oil, sesame oil, peanut oil", "result": "90 % of control"}
    ]},
    {"smiles": "CC1(C)COC(c2ccc(C(C)(C)C)cc2C(O)(c2cc(C(C)(C)C)ccc2C2=NC(C)(C)CO2)c2cc(C(C)(C)C)ccc2C2=NC(C)(C)CO2)=N1", "values": [
      {"measurement": "T/C", "setting": "[1]", "result": "92 % of control and 94 % of control"},
      {"measurement": "T/C", "setting": "[2]", "result": "94 % of control"},
      {"measurement": "T/C", "setting": "[3]", "result": "90 % of control and 94 % of control"}
    ]},
    {"smiles": "Cc1nc2nccnc2[nH]1", "values": [
      {"measurement": "T/C", "setting": "[4]", "result": "91 % of control"},
      {"measurement": "T/C", "setting": "[5]", "result": "91 % of control"},
      {"measurement": "T/C", "setting": "dose: 400.0 mg/kg/injection, schedule: Q01DX009 (ip), vehicle: saline with Tween-80", "result": "100 % of control"}
    ]},
    {"smiles": "CC(C)(O)c1ccccc1S(=O)c1ccc(Cl)cc1", "note": "(configuration not stated)", "values": [
      {"measurement": "T/C", "setting": "[6]", "result": "100 % of control"},
      {"measurement": "T/C", "setting": "[4]", "result": "101 % of control"},
      {"measurement": "T/C", "setting": "[5]", "result": "99 % of control"}
    ]},
    {"smiles": "Nc1cc(C(F)(F)F)ccc1S(=O)(=O)O", "values": [
      {"measurement": "T/C", "setting": "dose: 100.0 mg/kg/injection, schedule: Q01DX001 (ip), vehicle: Klucel (hydroxypropylcellulose) (HPC)", "result": "100 % of control"},
      {"measurement": "T/C", "setting": "dose: 200.0 mg/kg/injection, schedule: Q01DX001 (ip), vehicle: Klucel (hydroxypropylcellulose) (HPC)", "result": "100 % of control"},
      {"measurement": "T/C", "setting": "dose: 400.0 mg/kg/injection, schedule: Q01DX001 (ip), vehicle: Klucel (hydroxypropylcellulose) (HPC)", "result": "100 % of control"}
    ]},
    {"smiles": "O=C(C(Br)C(Br)c1ccccc1)N1CCOCC1", "note": "(configuration not stated)", "values": [
      {"measurement": "T/C", "setting": "dose: 100.0 mg/kg/injection, schedule: Q04DX003 (ip), vehicle: saline sonified", "result": "104 % of control"},
      {"measurement": "T/C", "setting": "dose: 200.0 mg/kg/injection, schedule: Q04DX003 (ip), vehicle: saline sonified", "result": "100 % of control"},
      {"measurement": "T/C", "setting": "dose: 400.0 mg/kg/injection, schedule: Q04DX003 (ip), vehicle: saline sonified", "result": "113 % of control"}
    ]},
    {"smiles": "CCCCN(CCCC)CCCNC(=O)OCC", "values": [
      {"measurement": "T/C", "setting": "dose: 25.0 mg/kg/injection, schedule: Q01DX009 (ip), vehicle: Klucel (hydroxypropylcellulose) (HPC)", "result": "100 % of control"},
      {"measurement": "T/C", "setting": "dose: 25.0 mg/kg/injection, schedule: Q04DX003 (ip), vehicle: Klucel (hydroxypropylcellulose) (HPC)", "result": "100 % of control"},
      {"measurement": "T/C", "setting": "dose: 50.0 mg/kg/injection, schedule: Q01DX009 (ip), vehicle: Klucel (hydroxypropylcellulose) (HPC)", "result": "110 % of control"},
      {"measurement": "T/C", "setting": "dose: 50.0 mg/kg/injection, schedule: Q04DX003 (ip), vehicle: Klucel (hydroxypropylcellulose) (HPC)", "result": "104 % of control"},
      {"measurement": "T/C", "setting": "[7]", "result": "115 % of control"},
      {"measurement": "T/C", "setting": "[8]", "result": "109 % of control"}
    ]},
    {"smiles": "CC(=O)CC(C)=O.CC(=O)CC(C)=O.CC(=O)CC(C)=O.[In]", "values": [
      {"measurement": "T/C", "setting": "dose: 100.0 mg/kg/injection, schedule: Q04DX003 (ip), vehicle: saline", "result": "109 % of control"},
      {"measurement": "T/C", "setting": "dose: 200.0 mg/kg/injection, schedule: Q04DX003 (ip), vehicle: saline", "result": "104 % of control"}
    ]},
    {"smiles": "CCSC(C#N)=C(c1ccccc1)c1ccccc1", "values": [
      {"measurement": "T/C", "setting": "[1]", "result": "103 % of control"},
      {"measurement": "T/C", "setting": "[2]", "result": "94 % of control"},
      {"measurement": "T/C", "setting": "[3]", "result": "92 % of control"}
    ]},
    {"smiles": "COC1CC(C)C(OC)C2=CC(=O)C=C(NC(=O)/C(C)=C/C=C\\C(C)C(OC(N)=O)/C(C)=C\\C(C)C1OC)C2=O", "note": "(configuration not stated)", "values": [
      {"measurement": "T/C", "setting": "dose: 5.0 mg/kg/injection, schedule: Q01DX009 (ip), vehicle: saline + alcohol", "result": "150 % of control"},
      {"measurement": "T/C", "setting": "dose: 10.0 mg/kg/injection, schedule: Q01DX009 (ip), vehicle: saline + alcohol", "result": "171 % of control"}
    ]},
    {"smiles": "CCCC(=O)OCc1ccccn1", "values": [
      {"measurement": "T/C", "setting": "[6]", "result": "107 % of control"},
      {"measurement": "T/C", "setting": "[4]", "result": "102 % of control"},
      {"measurement": "T/C", "setting": "[5]", "result": "86 % of control"}
    ]},
    {"smiles": "CC(=N\\[O-])/C(C)=N/O.CC(=N\\[O-])/C(C)=N/O.CCCc1ccncc1.[Cl-].[Cl-].[Rh+3]", "values": [
      {"measurement": "T/C", "setting": "dose: 12.5 mg/kg/injection, schedule: Q01DX009 (ip), vehicle: saline", "result": "100 % of control"},
      {"measurement": "T/C", "setting": "dose: 25.0 mg/kg/injection, schedule: Q01DX009 (ip), vehicle: saline", "result": "102 % of control"},
      {"measurement": "T/C", "setting": "[9]", "result": "105 % of control"},
      {"measurement": "T/C", "setting": "[10]", "result": "102 % of control"}
    ]},
    {"smiles": "c1ccc2cc(OCC3CO3)c(OCC3CO3)cc2c1", "note": "(configuration not stated)", "values": [
      {"measurement": "T/C", "setting": "dose: 30.0 mg/kg/injection, schedule: Q01DX005 (ip), vehicle: saline with Tween-80", "result": "161 % of control"},
      {"measurement": "T/C", "setting": "dose: 60.0 mg/kg/injection, schedule: Q01DX005 (ip), vehicle: saline with Tween-80", "result": "157 % of control"},
      {"measurement": "T/C", "setting": "dose: 120.0 mg/kg/injection, schedule: Q01DX005 (ip), vehicle: saline with Tween-80", "result": "176 % of control"}
    ]},
    {"smiles": "Cc1cc(Nc2cccc(Cl)c2)cc(=O)[nH]1", "values": [
      {"measurement": "T/C", "setting": "dose: 50.0 mg/kg/injection, schedule: Q01DX001 (ip), vehicle: saline with Tween-80", "result": "113 % of control"},
      {"measurement": "T/C", "setting": "dose: 100.0 mg/kg/injection, schedule: Q01DX001 (ip), vehicle: saline with Tween-80", "result": "100 % of control"},
      {"measurement": "T/C", "setting": "dose: 200.0 mg/kg/injection, schedule: Q01DX001 (ip), vehicle: saline with Tween-80", "result": "98 % of control"}
    ]},
    {"smiles": "CCCOn1nnc2cc(Cl)ccc21", "values": [
      {"measurement": "T/C", "setting": "[4]", "result": "100 % of control"},
      {"measurement": "T/C", "setting": "[5]", "result": "92 % of control"}
    ]},
    {"smiles": "O=[N+]([O-])c1ccc2nnn(OC3CCCC3)c2c1", "values": [
      {"measurement": "T/C", "setting": "[1]", "result": "98 % of control"},
      {"measurement": "T/C", "setting": "[2]", "result": "101 % of control"},
      {"measurement": "T/C", "setting": "[3]", "result": "88 % of control"}
    ]},
    {"smiles": "CO[C@@H]1C=C[C@@]23c4cc5c(cc4CN(C[C@@H]2O)[C@H]3C1)OCO5", "values": [
      {"measurement": "T/C", "setting": "dose: 18.75 mg/kg/injection, schedule: Q01DX010 (ip), vehicle: saline", "result": "104 % of control"},
      {"measurement": "T/C", "setting": "dose: 37.5 mg/kg/injection, schedule: Q01DX010 (ip), vehicle: saline", "result": "104 % of control"}
    ]},
    {"smiles": "CC1(C)C2CC34CCCN3C(=O)C2(CC12Nc1ccccc1C2=O)NC4=O", "note": "(configuration not stated)", "values": [
      {"measurement": "T/C", "setting": "[9]", "result": "102 % of control"},
      {"measurement": "T/C", "setting": "[10]", "result": "109 % of control"},
      {"measurement": "T/C", "setting": "dose: 200.0 mg/kg/injection, schedule: Q01DX009 (ip), vehicle: saline", "result": "113 % of control"}
    ]},
    {"smiles": "C(=C\\c1cccnc1)/c1ccncc1", "values": [
      {"measurement": "T/C", "setting": "dose: 66.0 mg/kg/injection, schedule: Q01DX009 (ip), vehicle: Klucel (hydroxypropylcellulose) (HPC)", "result": "158 % of control"},
      {"measurement": "T/C", "setting": "dose: 66.0 mg/kg/injection, schedule: Q01DX009 (ip), vehicle: saline with Tween-80", "result": "108 % of control"},
      {"measurement": "T/C", "setting": "[7]", "result": "178 % of control"},
      {"measurement": "T/C", "setting": "[4]", "result": "94 % of control"},
      {"measurement": "T/C", "setting": "[8]", "result": "100 % of control"},
      {"measurement": "T/C", "setting": "dose: 150.0 mg/kg/injection, schedule: Q01DX009 (ip), vehicle: Klucel (hydroxypropylcellulose) (HPC)", "result": "158 % of control"},
      {"measurement": "T/C", "setting": "dose: 150.0 mg/kg/injection, schedule: Q01DX009 (ip), vehicle: saline with Tween-80", "result": "108 % of control"},
      {"measurement": "T/C", "setting": "dose: 200.0 mg/kg/injection, schedule: Q04DX003 (ip), vehicle: Klucel (hydroxypropylcellulose) (HPC)", "result": "86 % of control"}
    ]}
  ]
}
